Measured values from US9132131B2, “Use of adenosine A3 receptor agonists for treatment of neuropathic pain” (Saint Louis University, priority 2011, dated 2015).
Several values for one entry are separate records, joined by “and”; a condition that tells them apart may be missing. Equal entries are not always repeated.

What was measured:
[1] = subjects receiving the drug; cited from earlier work
[2] = system: RPMI 8226 multiple myeloma cells; experiment: MTT cell survival assay, RPMI 8226; format: cell-based, human; conditions: 48 hours
Method: Cells were cultured and assayed in DMEM (SKBR3; human breast cancer cells), L15 (SW480; human colon cancer cells) or RPMI […] (RPMI 8226; human multiple myeloma cells) supplemented with heat-denatured 10% FBS and penicillin/streptomycin at 37° C., 0% (SW480) or 5% CO2 (SKBR3 and RPMI 8226), 95% humidity. The antitumor activities of these agents were measured in cells (6.25×10^4 cells/well) cultured overnight in 24-well plates (SKBR3 and SW480; BD Biosciences) or 12 mm×7.5 mm culture tubes (RPMI 8226; BD Biosciences) in complete media. […] Two naïve control wells were included as a control for 100% survival. Cell survival was determined using a MTT (3-(4,5-dimethylthiazol-2-yl)-2,5-diphenyltetrazolium bromide) assay adapted from a previously described assay. Cells were incubated with MTT (500 μg/ml) for 75 minutes at 37° C., 0% or 5% CO2, 95% humidity, removing the media and dissolving the tetrazolium crystals in isopropanol. […] The antitumor effects of IB-MECA alone were determined as % Survivability=(A560-570 nm of chemotherapeutic vehicle+IB-MECA)/(mean A560-570 nm of the naïve control wells)×100. The LD50 of each chemotherapeutic agent+IB-MECA or its vehicle was calculated using three-parameter non-linear analysis using % Survivability=(A560-570 nm of chemotherapeutic+IB-MECA or its vehicle)/(mean A560-570 nm chemotherapeutic vehicle+vehicle of IB-MECA)×100. […]

[3] = system: CCI of the sciatic nerve (mechano-allodynia); experiment: CCI model of neuropathic pain, mechano-allodynia (von Frey PWT); format: in vivo, mice; conditions: for reversal of mechano-allodynia in ipsilateral paws: single dose D7, IB-MECA 0.2-2, CI-IB-MECA 0.6, MRS1898 0.5 μmol/kg i.p., morphine 0.11-35 s.c., gabapentin 18-584 i.p., amitriptyline 3-191 μmol/kg oral
Method: CCI model of neuropathic pain. CCI to the sciatic nerve of the left hind leg in mice was performed under general anaesthesia using the well-characterized Bennett model. Briefly, mice (weighing 25-30 g at the time of surgery) were anesthetized with 3% isoflurane/100% O2 inhalation and maintained on 2% isoflurane/100% O2 for the duration of surgery. The left thigh was shaved, scrubbed with Nolvasan® and a small incision (1-1.5 cm in length) was made in the middle of the lateral aspect of the left thigh to expose the sciatic nerve. The nerve was loosely ligated around the entire diameter of the nerve at three distinct sites (spaced 1 mm apart) using silk sutures (6.0). The surgical site was closed with a single muscle suture and a skin clip. Pilot studies established that under our experimental conditions peak mechano-allodynia develops by day 5-day 7 (D5-D7) following CCI. Test substances or their vehicles were given subcutaneously (s.c.), intraperitoneally (i.p.) or orally by gavage (0.1 ml) at peak mechano-allodynia (D7).
Behavioral testing. […] The plantar aspect of hindpaws were probed three times with calibrated von Frey filaments (Stoelting, mice: 0.07-2.00 grams; rats: 0.407-26 grams) according to the “up-and-down” method. […] Briefly, each rat was placed in a Plexiglas chamber (28×40×35-cm, wire mesh floor) and after its acclimation, a servo-controlled mechanical stimulus was applied to the plantar surface that exerted a progressively increasing punctate pressure up to 50 grams within 10 seconds. Mechanical threshold was assessed three times at each time point to yield a mean value, reported as PWT (grams). […] Mechano-hyperalgesia was assessed in rats by the Randall and Sellitto paw pressure test using an analgesiometer (Ugo Basile). The nociceptive threshold was defined as the force (grams) at which the rat withdrew its paw (cut off set at 250 grams).
Determining ED50 values. Dose response data were curve-fitted using the least sum of square method by a normalized 4-parameter, variable slope non-linear analysis of the % Reversal of Mechano-allodynia in CCI and % Prevention of Mechano-allodynia or Mechano-hyperalgesia in CIPN using GraphPad Prism (Release 5.03, GraphPad Software, Inc.) from which the ED50 was determined and reported with the 95% confidence interval (95% CI). In the CCI model, the % Reversal of Mechano-allodynia=(PWT1h−PWTD7)/(PWTD0−PWTD7)×100, where PWTD0=Paw Withdrawal Threshold (g) at D0, PWT1h=Paw Withdrawal Threshold (g) at 1 hour after the administration of IB-MECA, gabapentin, amitriptyline, or combinations of IB-MECA with gabapentin or amitriptyline, and PWTD7=Paw Withdrawal Threshold (grams) at D7 prior to drug administration.
Statistical Analysis. Data are expressed as mean±SD for n animals. Behavioral data were analyzed by two-way repeated measures ANOVA with Bonferroni comparisons (full time course studies) or one-way ANOVA Dunnett's comparisons (1 hour behavioral data). The dose response curves were compared to a globally fitted curve using the extra sum-of-squares F-test comparisons to determine whether the data represented distinct curves between treatments. Significant differences were defined at a P<0.05. All statistical analysis was performed using GraphPad Prism (v5.03, GraphPad Software, Inc.).

[4] = system: paclitaxel-induced neuropathic pain; experiment: Paclitaxel-induced neuropathic pain (mechano-allodynia, mechano-hyperalgesia); format: in vivo, rats
A3ARs = conditions: cited from earlier work
[5] = system: acute nociception (hot plate latency); experiment: Hot plate assay for acute nociception; format: in vivo, mice; conditions: 0.5 μmol/kg
Method: (§1) Tail flick and hot plate assay in mice for acute nociception. The tail flick test, which measures latency(s) of tail withdrawal from a noxious radiant heat source (Ugo Basile; model number 37360) was used to measure thermal nociceptive sensitivity in mice with baseline latencies of 3-5 seconds and a cut-off time of 15 seconds to prevent tissue injury. Tail flick latencies were taken before and at 30, 60 and 120 minutes after i.p. injection of IB-MECA, MRS1898 (0.5 μmol/kg) or its vehicle (0.1% DMSO in saline). For the hot plate test, nociceptive thresholds were determined as previously reported by our group by measuring latencies (in seconds) of mice placed in a transparent glass cylinder on a hot plate maintained at 52° C.. Responses indicative of nociception included intermittent lifting and/or licking of the hindpaws or escape behavior. Hot plate latencies were taken in mice from all groups before and after drug administration. A cut-off latency of 15 seconds was employed to prevent tissue damage.

[6] = system: acute nociception (tail flick latency); experiment: Tail flick assay for acute nociception; format: in vivo, mice; conditions: IB-MECA, MRS1898 0.5 μmol/kg i.p. at 30, 60, 120 minutes; morphine 35 μmol/kg s.c. positive control
Method: as §1

[7] = system: SKBR3 breast cancer cells; experiment: MTT cell survival assay, SKBR3; format: cell-based, human; conditions: 48 hours, MTT, SKBR3
Method: Cells were cultured and assayed in DMEM (SKBR3; human breast cancer cells), L15 (SW480; human colon cancer cells) or RPMI […] (RPMI 8226; human multiple myeloma cells) supplemented with heat-denatured 10% FBS and penicillin/streptomycin at 37° C., 0% (SW480) or 5% CO2 (SKBR3 and RPMI 8226), 95% humidity. The antitumor activities of these agents were measured in cells (6.25×10^4 cells/well) cultured overnight in 24-well plates (SKBR3 and SW480; BD Biosciences) or 12 mm×7.5 mm culture tubes (RPMI 8226; BD Biosciences) in complete media. […] Two naïve control wells were included as a control for 100% survival. Cell survival was determined using a MTT (3-(4,5-dimethylthiazol-2-yl)-2,5-diphenyltetrazolium bromide) assay adapted from a previously described assay. Cells were incubated with MTT (500 μg/ml) for 75 minutes at 37° C., 0% or 5% CO2, 95% humidity, removing the media and dissolving the tetrazolium crystals in isopropanol. […] The antitumor effects of IB-MECA alone were determined as % Survivability=(A560-570 nm of chemotherapeutic vehicle+IB-MECA)/(mean A560-570 nm of the naïve control wells)×100. The LD50 of each chemotherapeutic agent+IB-MECA or its vehicle was calculated using three-parameter non-linear analysis using % Survivability=(A560-570 nm of chemotherapeutic+IB-MECA or its vehicle)/(mean A560-570 nm chemotherapeutic vehicle+vehicle of IB-MECA)×100. The top and bottom plateaus were constrained using GraphPad Prism v5.03 (GraphPad Software, Inc.).

[8] = co-administered IB-MECA 0.2 μmol/kg, D7

CC(C)C[C@H](NC(=O)[C@H](Cc1ccccc1)NC(=O)c1cnccn1)B(O)O [Bortezomib]
incidence of CIPN [1]: 36-55%
LD50 [2]: 27 nM

CCCOC(=O)c1c(-c2ccccc2)nc(CC)c(C(=O)SCC)c1CCC [MRS1523, 3-propyl-6-ethyl-5[(ethylthio)carbonyl]-2-phenyl-4-propyl-3-pyridine-carboxylate]
effect of antagonist pretreatment on anti-allodynic effect of CI-IB-MECA or MRS1898 ([3]; 15 min before CI-IB-MECA 0.6 or MRS1898 0.5 μmol/kg, DPCPX and SCH-442416 with MRS1898 only): blocked
effect of antagonist pretreatment on anti-allodynic effect of IB-MECA ([3]; 15 min before IB-MECA 0.5 μmol/kg, MRS1523 5, DPCPX 2, SCH-442416 0.2 μmol/kg): prevented
effect of antagonist given alone on ipsilateral or contralateral PWT ([3]; D7, MRS1523 5, DPCPX 2, SCH-442416 0.2, naloxone 25 μmol/kg): lacked effect
effect on PWT when administered alone (vehicle groups) ([4]; IB-MECA 0.2 μmol/kg/d in any of the chemotherapy models, MRS1523 5 μmol/kg/d): lacked effect
effect of co-administered antagonist on the effects of IB-MECA ([4]; MRS1523 5 μmol/kg/d with IB-MECA 0.2 μmol/kg/d): prevented
selectivity against A1AR (A3ARs): moderate selectivity
selectivity against A2AAR and A2BAR (A3ARs): at least 1000 fold
binding to A3ARs (A3ARs; murine and rat): high affinity

CNC(=O)[C@]12C[C@@H]1[C@@H](n1cnc3c(NCc4cccc(I)c4)nc(Cl)nc31)[C@H](O)[C@@H]2O [MRS1898, (1′R,2′R,3′S,4′R,5′S)-4-{2-chloro-6-[(3-iodophenylmethyl)amino]purin-9-yl}-1-(methylaminocarbonyl)-bicyclo[3.1.0]hexane-2,3-diol]
effect on PWT in contralateral paws ([3]; D7 after CCI, drug alone): had no effect
reversal of mechano-allodynia in ipsilateral paws [3]: reversed mechano-allodynia
effect on paclitaxel-induced neuropathic pain ([4]; 0.2 μmol/kg/d (not shown)): completely blocked
effect on the hot plate [5]: had no effect
effect on tail flick latency [6]: lacked effect

CC(=O)O[C@H]1C(=O)[C@@]2(C)[C@H]([C@H](OC(=O)c3ccccc3)[C@]3(O)C[C@H](OC(=O)[C@H](O)[C@@H](NC(=O)c4ccccc4)c4ccccc4)C(C)=C1C3(C)C)[C@]1(OC(C)=O)CO[C@@H]1C[C@@H]2O [Paclitaxel]
LD50 [7]: 7.0 nM

CN1CC[C@]23c4c5ccc(O)c4O[C@H]2[C@@H](O)C=C[C@H]3[C@H]1C5 [morphine]
efficacy of IB-MECA compared with this drug ([3]; D7, time of peak reversal (FIG. 7)): more efficacious
effect on PWT in contralateral paws ([3]; D7 after CCI, drug alone): not in contralateral paws
ED50 ([3]; Mus musculus, read-out: ED50, reversal of mechano-allodynia): 2.1 µmol/kg
time of maximal reversal of mechano-allodynia ([3]; after single administration on D7): 0.5 h
enhancement of efficacy by IB-MECA [3, 8]: 1.6 fold
increase of potency by IB-MECA [3, 8]: > 2 fold
Emax, reversal of mechano-allodynia ([3]; mice, D7 after CCI, drug alone): 62±3%
ED50 at peak reversal of mechano-allodynia when combined with IB-MECA ([3]; mice, D7 after CCI, co-administered with IB-MECA 0.2 μmol/kg): 0.98 µmol/kg
fold less potent than IB-MECA in reversing mechano-allodynia ([3]; ratio of ED50 values, D7, time of peak reversal): > 5 fold and 5 fold
reversal of mechano-allodynia in ipsilateral paws [3]: dose-dependent reversal of mechano-allodynia
effect on tail flick latency [6]: significant (P<0.001) increase in tail flick latencies
